For one experiment, the system named is DIGSA. Kind of experiment: Post-emergence herbicidal activity on DIGSA (large crabgrass). Type of experiment: in vivo, Digitaria sanguinalis. To be noted: post-emergence spray; lowest tested rate with 80% or greater inhibition; about 14 days after treatment.
The test system of a further experiment is PANMI. Kind of experiment: Post-emergence herbicidal activity on PANMI (wild proso millet). To be noted: post-emergence spray; lowest tested rate with 80% or greater inhibition; about 14 days after treatment. Type of experiment: in vivo, Panicum miliaceum.
The test system of another experiment is PANDI. Kind of experiment: Post-emergence herbicidal activity on PANDI (fall panicum). Type of experiment: in vivo, Panicum dichotomiflorum. To be noted: post-emergence spray; lowest tested rate with 80% or greater inhibition; about 14 days after treatment. From the text:
(§1) All such uses, and the biological activity enabling such uses, are embraced by the term “herbicidal” herein. Tables 15 and 16 summarize results of tests conducted as described below to determine the pre-emergence herbicidal activity, in the form of a GR80 value, of illustrative compounds of this invention. […] Where herbicidal activity was evident but 80% inhibition was not achieved at the highest rate tested (typically 1000 g/ha), an asterisk (*) is shown in the following tables. Herbicidal activity evident in the form of symptoms of phytotoxicity, in the absence of at least 80% inhibition at any rate, is indicated in the tables by “phyto”. A blank cell in the following tables indicates no herbicidal or phytotoxic response at any rate tested.
(§2) In another set of tests, the post-emergence activity of compounds of this invention was evaluated on the cool season species listed above. The following procedure was used.
(§3) A pre-prepared topsoil mixture (described above) was placed in a pot and compacted to a depth of 1.0 to 1.25 cm from the top of the pot. Seeds of each of several monocotyledonous and dicotyledonous annual plant species were placed on top of the soil The seeds were covered with a mixture of 50% topsoil and 50% Rediearth™ in sufficient quantity to level-fill the pots. The pots were then placed on a greenhouse bench and subirrigated as needed until plants growing from the seeds had emerged and reached a suitable growth stage for post-emergence treatment, typically 9 to 14 days after planting.
(§4) A known amount of each test compound dissolved or suspended in an appropriate organic solvent was diluted with a 50:50 mix of acetone and water and applied to the plants by spraying with a standard spray nozzle in a spray volume of 3,100 l/ha at a spray pressure of […] (30 psig). Control plants were not sprayed.
(§5) After treatment the plants were placed in a greenhouse with a 30/21° C. day/night temperature regime and were subsequently watered as needed for growth. Approximately 14 days after treatment, the plants were observed and herbicidal efficacy recorded as percent inhibition by comparison with control plants.

In experiment [1] the test system is SORHA. In words: Post-emergence herbicidal activity on SORHA (johnsongrass, seedling). To be noted: post-emergence spray; lowest tested rate with 80% or greater inhibition; about 14 days after treatment. Type of experiment: in vivo, Sorghum halepense.
Description: as §1, §2, §3, §4, §5

Experiment [2] deals with BRAPP. Kind of experiment: Post-emergence herbicidal activity on BRAPP (broadleaf signalgrass). To be noted: post-emergence spray; lowest tested rate with 80% or greater inhibition; about 14 days after treatment. Type of experiment: in vivo, Brachiaria platyphylla.
Description: as §1, §2, §3, §4, §5

The test system of experiment [3] is SETFA. Kind of experiment: Post-emergence herbicidal activity on SETFA (giant foxtail). It is filed as in vivo, Setaria faberi. To be noted: post-emergence spray; lowest tested rate with 80% or greater inhibition; about 14 days after treatment.
Description: as §1, §2, §3, §4, §5

A further experiment deals with ECHCG. Kind of experiment: Post-emergence herbicidal activity on ECHCG (barnyardgrass). To be noted: post-emergence spray; lowest tested rate with 80% or greater inhibition; about 14 days after treatment. It is filed as in vivo, Echinochloa crus-galli.
Description: as §1, §2, §3, §4, §5

In the next experiment the test system is SORVU. In words: Post-emergence herbicidal activity on SORVU (shattercane). It is filed as in vivo, Sorghum vulgare. To be noted: post-emergence spray; lowest tested rate with 80% or greater inhibition; about 14 days after treatment.
Description: as §1, §2, §3, §4, §5

A further experiment deals with CONAR. In words: Post-emergence herbicidal activity on CONAR (field bindweed). It is filed as in vivo, Convolvulus arvensis. To be noted: post-emergence spray; lowest tested rate with 80% or greater inhibition; about 14 days after treatment.
Description: as §1, §2, §3, §4, §5

In another experiment the test system is CHEAL. Kind of experiment: Post-emergence herbicidal activity on CHEAL (common lambsquarters). It is filed as in vivo, Chenopodium album. To be noted: post-emergence spray; lowest tested rate with 80% or greater inhibition; about 14 days after treatment.
Description: as §1, §2, §3, §4, §5

The subject of a further experiment is DATST. Kind of experiment: Post-emergence herbicidal activity on DATST (jimsonweed). It is filed as in vivo, Datura stramonium. To be noted: post-emergence spray; lowest tested rate with 80% or greater inhibition; about 14 days after treatment.
Description: as §1, §2, §3, §4, §5

For experiment [4], the system named is ABUTH. In words: Post-emergence herbicidal activity on ABUTH (velvetleaf). Type of experiment: in vivo, Abutilon theophrasti. To be noted: post-emergence spray; lowest tested rate with 80% or greater inhibition; about 14 days after treatment.
Description: as §1, §2, §3, §4, §5

The subject of a further experiment is POROL. In words: Post-emergence herbicidal activity on POROL (common purslane; table head prints PORAL). It is filed as in vivo, Portulaca oleracea. To be noted: post-emergence spray; lowest tested rate with 80% or greater inhibition; about 14 days after treatment.
Description: as §1, §2, §3, §4, §5

The test system of experiment [5] is SETFA. In words: Pre-emergence herbicidal activity on SETFA (giant foxtail). Type of experiment: in vivo, Setaria faberi. To be noted: lowest tested rate giving 80% or greater inhibition, approx. 14 days after planting and treating, greenhouse. A digest of the protocol: (§6)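 Surface-applied pre-emergence treatment (compound diluted in 1:1 acetone/water) onto seeded, soil-covered pots. Greenhouse 30/21 °C. Day ~14: % inhibition vs untreated → GR80.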

The subject of experiment [6] is SORHA. In words: Pre-emergence herbicidal activity on SORHA (johnsongrass, seedling). It is filed as in vivo, Sorghum halepense. To be noted: lowest tested rate giving 80% or greater inhibition, approx. 14 days after planting and treating, greenhouse. The method in brief: as §6
Experiment [7] concerns BRAPP. In words: Pre-emergence herbicidal activity on BRAPP (broadleaf signalgrass). Type of experiment: in vivo, Brachiaria platyphylla. To be noted: lowest tested rate giving 80% or greater inhibition, approx. 14 days after planting and treating, greenhouse. The method in brief:
as §6

The next experiment relates to AMARE. Kind of experiment: Post-emergence herbicidal activity on AMARE (redroot pigweed). It is filed as in vivo, Amaranthus retroflexus. To be noted: post-emergence spray; lowest tested rate with 80% or greater inhibition; about 14 days after treatment.
Description: as §1, §2, §3, §4, §5

In experiment [8] the test system is SOLNI. In words: Post-emergence herbicidal activity on SOLNI (black nightshade). It is filed as in vivo, Solanum nigrum. To be noted: post-emergence spray; lowest tested rate with 80% or greater inhibition; about 14 days after treatment.
Description: as §1, §2, §3, §4, §5

Experiment [9] deals with SOLNI. Kind of experiment: Pre-emergence herbicidal activity on SOLNI (black nightshade). Type of experiment: in vivo, Solanum nigrum. To be noted: lowest tested rate giving 80% or greater inhibition, approx. 14 days after planting and treating, greenhouse. A digest of the protocol:
as §6

Experiment [10] has as its system ABUTH. Kind of experiment: Pre-emergence herbicidal activity on ABUTH (velvetleaf). It is filed as in vivo, Abutilon theophrasti. To be noted: lowest tested rate giving 80% or greater inhibition, approx. 14 days after planting and treating, greenhouse. A digest of the protocol:
as §6

This is an account of results in patent US20020052295A1, “Diacyl derivatives of propylene diamine having herbicidal activity” (priority 1999, published 2002).

Each structure is given as a SMILES string.

`CC(CNC(=O)c1cccc(C(F)(F)F)c1)NC(=O)c1ccc(C(F)(F)F)c(F)c1` (stereo not shown) [Example 24]: in the experiment with DIGSA, the “Post-emergence activity (GR80) DIGSA” value is listed as “phyto”. Moreover, the “Post-emergence activity (GR80) PANMI” value with PANMI was “phyto”. Moreover, in the experiment with PANDI, the “Post-emergence activity (GR80) PANDI” value is “phyto”. Moreover, in the experiment on SORHA [1], the “Post-emergence activity (GR80) SORHA” value is “[empty]”. Moreover, the “Post-emergence activity (GR80) BRAPP” value in the experiment with BRAPP [2] is on record as “phyto”. Also, the “Post-emergence activity (GR80) SETFA” value in the experiment with SETFA [3] is “[empty]”. Also, the “Post-emergence activity (GR80) ECHCG” value with ECHCG is “phyto”. For the same compound, in the experiment on SORVU, the “Post-emergence activity (GR80) SORVU” value was “phyto”.
`CC(CNC(=O)c1cccc(C(F)(F)F)c1)NC(=O)c1ccccc1SCCCCl` (stereo not shown) [Example 119]: in the experiment with DIGSA, the “Post-emergence activity (GR80) DIGSA” value was “[empty]”. In addition, the “Post-emergence activity (GR80) PANMI” value with PANMI was “[empty]”. Moreover, the “Post-emergence activity (GR80) CONAR” value in the experiment with CONAR is given as “phyto”. Further, the “Post-emergence activity (GR80) CHEAL” value with CHEAL is “[empty]”. Besides, the “Post-emergence activity (GR80) DATST” value in the experiment with DATST is recorded as “phyto”. The “Post-emergence activity (GR80) PANDI” value with PANDI is “[empty]”. In addition, in the experiment with ABUTH [4], the “Post-emergence activity (GR80) ABUTH” value is listed as “phyto”. In the experiment on POROL, the “Post-emergence activity (GR80) PORAL” value is recorded as “phyto”. Besides, in the experiment with SETFA [5], the “Pre-emergence activity (GR80) on SETFA” value is on record as “phyto”. Moreover, the “Pre-emergence activity (GR80) on SORHA” value in the experiment with SORHA [6] is on record as “phyto”. Moreover, the “Post-emergence activity (GR80) SORHA” value with SORHA [1] was “[empty]”. Besides, in the experiment on BRAPP [7], the “Pre-emergence activity (GR80) on BRAPP” value is given as “phyto”. The “Post-emergence activity (GR80) BRAPP” value in the experiment on BRAPP [2] was “[empty]”. Besides, the “Post-emergence activity (GR80) AMARE” value in the experiment on AMARE is recorded as “phyto”. Moreover, the “Post-emergence activity (GR80) SOLNI” value in the experiment with SOLNI [8] is “phyto”. Moreover, the “Post-emergence activity (GR80) SETFA” value in the experiment with SETFA [3] was “[empty]”. For the same compound, the “Post-emergence activity (GR80) ECHCG” value in the experiment with ECHCG is “[empty]”. Moreover, the “Pre-emergence activity (GR80) on SOLNI” value in the experiment with SOLNI [9] was found to be 1000 g/ha. In the experiment with SORVU, the “Post-emergence activity (GR80) SORVU” value is “[empty]”. Moreover, in the experiment with ABUTH [10], the “Pre-emergence activity (GR80) on ABUTH” value was “phyto”.
